The values that follow come from patent US11319315B2, “Cyclohexyl acid triazole azoles as LPA antagonists” (BRISTOL-MYERS SQUIBB COMPANY, priority 2017, dated 2022).

The target of one assay is T1, human LPA1 (Homo sapiens, UniProt Q92633).
T1 construct: expressed in transfected cells; host or cells: Chinese hamster ovary (CHO) cells
Briefly: LPA1 functional antagonist assay (LPA-induced calcium flux in CHO cells overexpressing human LPA1). The class given is cell-based. The note with it: read-out: hLPA1 IC50. Summed up:
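Calcium flux was triggered by 10 nM LPA after 20 min room-temperature compound pre-incubation (final 0.08 nM to 5 μM, 0.5% DMSO) in human LPA1-overexpressing CHO cells carrying calcium dye. Buffer: HBSS with Ca/Mg, 20 mM HEPES, 0.1% fatty-acid-free BSA; IC50s from 4-parameter logistic fits.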
For orientation: A change in cytosolic calcium serves as a functional read-out for many receptors and channels.

A further assay deals with CD-1 female mice. Briefly: LPA challenge with plasma histamine evaluation (acute in vivo histamine assay). The arrangement: species or system mouse. The note with it: 1 mg/kg dose. The protocol:
LPA Challenge with Plasma Histamine Evaluation.
Compound is dosed orally p.o. 2 hours to CD-1 female mice prior to the LPA challenge. The mice are then dosed via tail vein (IV) with 0.15 mL of LPA in 0.1% BSA/PBS (2 μg/μL). Exactly 2 minutes following the LPA challenge, the mice are euthanized by decapitation and the trunk blood is collected. These samples are collectively centrifuged and individual 75 μL samples are frozen at −20° C. until the time of the histamine assay.
The plasma histamine analysis was run by standard EIA (Enzyme Immunoassay) methods. Plasma samples were thawed and diluted 1:30 in 0.1% BSA in PBS. The EIA protocol for histamine analysis as outlined by the manufacturer was followed (Histamine EIA, Oxford Biomedical Research, EA #31).
The LPA used in the assay is formulated as follows: LPA (l-oleoyl-2-hydroxy-sn-glycero-3-phosphate (sodium salt), 857130P, Avanti Polar Lipids) is prepared in 0.1% BSA/PBS for total concentration of 2 μg/μL. 13 mg of LPA is weighed and 6.5 mL 0.1% BSA added, vortexed and sonicated for 1 hour until a clear solution is achieved.

Another assay deals with IPF patients. The note with it: 26-week clinical trial in IPF patients; cited from earlier work.
The test system of a further assay is nerve-injured mice. The note with it: pretreatment; cited from earlier work.
Another assay concerns MCT. The note with it: MCT cells, co-treatment with LPA; cited from earlier work.
Assay [1] has as its system pancreatic cancer cell lines. The conditions noted are these: cited from earlier work.
Assay [2] has as its system human foetal lung fibroblasts. The note with it: cited from earlier work.
The next assay deals with UUO mice. The note with it: cited from earlier work.
[3] abbreviates: inhibition of calcium flux induced by 10 nM LPA, CHO cells overexpressing human LPA1.

As a reminder, the pIC50 is the negative decadic logarithm of the IC50, by convention in mol/L.

Each structure is given as a SMILES string. pIC50: −log10 of the molar value. Where two headings read alike, the source gives them in different places.

T1 sequence (Q92633 whole entry): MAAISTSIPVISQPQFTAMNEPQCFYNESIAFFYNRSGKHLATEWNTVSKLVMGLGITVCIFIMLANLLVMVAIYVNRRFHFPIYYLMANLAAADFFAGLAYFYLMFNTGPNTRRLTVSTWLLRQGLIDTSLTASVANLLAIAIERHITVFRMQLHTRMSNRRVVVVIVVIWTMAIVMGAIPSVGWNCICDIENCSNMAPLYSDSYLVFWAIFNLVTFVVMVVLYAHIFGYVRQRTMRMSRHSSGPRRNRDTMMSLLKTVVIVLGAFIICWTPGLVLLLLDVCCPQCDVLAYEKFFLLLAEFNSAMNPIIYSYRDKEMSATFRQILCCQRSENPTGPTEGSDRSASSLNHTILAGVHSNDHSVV

Take `Cc1nc(-c2nnn(C)c2CNc2noc(CC3CC3)n2)ccc1O[C@H]1CCC[C@H](C(=O)O)C1` [Example 70]: on human LPA1 (setting [3]), the pIC50 was 7.82. In addition, the “histamine, acute in vivo histamine assay in CD-1 mice” value in the assay with CD-1 female mice is recorded as −39%.
Consider `Cc1noc(-c2ccc(-c3ccc(C4(C(=O)O)CC4)cc3)cc2)c1NC(=O)O[C@H](C)c1ccccc1` [BMS-986020], for which the “rate of FVC (forced vital capacity) decline” value with IPF patients is “significantly reduce”.
Consider `C[C@@H](N)[C@H]1CC[C@H](C(=O)Nc2ccncc2)CC1` [Example Y-27632], for which, in the assay on nerve-injured mice, the allodynia and hyperalgesia result is reported as “completely abolished”.
Regarding `Cc1noc(-c2ccc(CSCCC(=O)O)cc2)c1NC(=O)OC(C)c1ccccc1Cl` (stereo not drawn) [Ki16425], the “LPA-induced CTGF expression” value with MCT is “almost completely suppressed”. Further, in assay [1] (highly peritoneal metastatic pancreatic cancer cell line), the “LPA-induced and ascites-induced invasion activity” value is “blocked”. Further, in assay [1] (pancreatic cancer cell lines), the “in vitro migration in response to LPA and peritoneal fluid (ascites) from pancreatic cancer patients” value was “effectively blocked”. Moreover, the “chemotaxis of human foetal lung fibroblasts induced by BAL from IPF patients” value in assay [2] was “blocked”. The “renal fibrosis profile in UUO mice” value in the assay on UUO mice is given as “closely resembled the profile of LPA1 (−/−) mice”.
For the compound `Cc1nc(-c2nnn(C)c2CNc2noc(CC3CC3)n2)c(F)cc1O[C@H]1CCC[C@H](C(=O)O)C1` [Example 282, (1S,3S)-3-((6-(5-(((5-(cyclopropylmethyl)-1,2,4-oxadiazol-3-yl)amino)methyl)-1-methyl-1H-1,2,3-triazol-4-yl)-5-fluoro-2-methylpyridin-3-yl)oxy)cyclohexane-1-carboxylic acid], the pIC50 at human LPA1 (setting [3]) was 6.63.
`Cc1nc(-c2nnn(C)c2Cc2nnn(CC(C)C)n2)ccc1O[C@H]1CCC[C@H](C(=O)O)C1` [Example 373, (1S,3S)-3-((6-(5-((2-isobutyl-2H-tetrazol-5-yl)methyl)-1-methyl-1H-1,2,3-triazol-4-yl)-2-methylpyridin-3-yl)oxy)cyclohexane-1-carboxylic acid]: the pIC50 on human LPA1 is 6.87.
Consider `Cc1nc(-c2nnn(C)c2CNc2nc(C3CCCC3)no2)ccc1O[C@H]1CCC[C@H](C(=O)O)C1` [Example 62], for which, at human LPA1 (setting [3]), the pIC50 is 7.37.
On the same count and under the same terms, the figure for `Cc1nc(-c2nnn(C)c2CNc2noc(CC3CC3(F)F)n2)ccc1O[C@H]1CCC[C@H](C(=O)O)C1` (stereo partly drawn) [Example 196] is 7.55.
Turning to `CCn1nnc(NCc2c(-c3ccc(O[C@H]4CCC[C@H](C(=O)O)C4)c(C)n3)nnn2C)n1` [Example 376, (1S,3S)-3-((6-(5-(((2-ethyl-2H-tetrazol-5-yl)amino)methyl)-1-methyl-1H-1,2,3-triazol-4-yl)-2-methylpyridin-3-yl)oxy)cyclohexane-1-carboxylic acid], on human LPA1, the pIC50 is 5.68.
For `Cc1nc(-c2nnn(C)c2Cn2ncnc2-c2ccccc2)ccc1O[C@H]1CCC[C@H](C(=O)O)C1` [Example 207, (1S,3S)-3-((2-Methyl-6-(1-methyl-5-((5-phenyl-1H-1,2,4-triazol-1-yl)methyl)-1H-1,2,3-triazol-4-yl)pyridin-3-yl)oxy)cyclohexane-1-carboxylic acid], at human LPA1 (setting [3]), the pIC50 was 6.67.
Still for that read-out and setting: under `CCOc1nc(NCc2c(-c3ccc(O[C@H]4CCC[C@H](C(=O)O)C4)c(C)n3)nnn2C)ns1` [Example 5] stands 7.55; under `Cc1nc(-c2nnn(C)c2Cn2nnc(C3CCOCC3)n2)ccc1O[C@H]1CCC[C@H](C(=O)O)C1` [Example 308, (1S,3S)-3-{[2-methyl-6-(1-methyl-5-{[5-(oxan-4-yl)-2H-1,2,3,4-tetrazol-2-yl]methyl}-1H-1,2,3-triazol-4-yl)pyridin-3-yl]oxy}cyclohexane-1-carboxylic acid], 6.15; under `Cc1nc(-c2nnn(C)c2Cn2nnc(OC(C)C)n2)ccc1O[C@H]1CCC[C@H](C(=O)O)C1` [Example 346, (1S,3S)-3-{[2-methyl-6-(1-methyl-5-{[5-(propan-2-yloxy)-2H-1,2,3,4-tetrazol-2-yl]methyl}-1H-1,2,3-triazol-4-yl)pyridin-3-yl]oxy}cyclohexane-1-carboxylic acid], 7.31.
With `Cc1nc(-c2nnn(C)c2Cn2nnc(OCCC3CC3)n2)ccc1O[C@H]1CCC[C@H](C(=O)O)C1` [Example 316, (1 S,3S)-3-((6-(5-((5-(2-cyclopropylethoxy)-2H-tetrazol-2-yl)methyl)-1-methyl-1H-1,2,3-triazol-4-yl)-2-methylpyridin-3-yl)oxy)cyclohexane-1-carboxylic acid], the pIC50 at human LPA1 (setting [3]) was 7.66.
In the case of `Cc1nc(-c2nnn(C)c2Cn2ncc(C3CC3)n2)ccc1O[C@H]1CCC[C@H](C(=O)O)C1` [Example 266, (1S,3S)-3-((6-(5-((4-cyclopropyl-2H-1,2,3-triazol-2-yl)methyl)-1-methyl-1H-1,2,3-triazol-4-yl)-2-methyl-pyridin-3-yl)oxy)cyclohexane-1-carboxylic acid], at human LPA1 (setting [3]), the pIC50 is 7.05.
For the compound `CCCCn1nnc(NCc2c(-c3ccc(O[C@H]4CCC[C@H](C(=O)O)C4)c(C)n3)nnn2C)n1` [Example 382, (1S,3S)-3-((6-(5-(((2-butyl-2H-tetrazol-5-yl)amino)methyl)-1-methyl-1H-1,2,3-triazol-4-yl)-2-methylpyridin-3-yl)oxy)cyclo-hexane-1-carboxylic acid], the pIC50 at human LPA1 was 6.28.
